Source: PubChem BioAssay AID248 (DTP/NCI, 2004)
Values joined by “and” are separate entries in the source; they are usually repeats but may differ in a detail not shown here. Identical values can stand only once. Inconclusive results and toxic doses are left out. No stated cut-off is given here; in the data, active means T/C of 150% or more; inactive means T/C below 125%.

Test system: L1210 leukemia ip in BDF1 mice, survival T/C
Experiment: NCI In Vivo Anticancer Drug Screen. Data for tumor model L1210 Leukemia (intraperitoneal) in B6D2F1 (BDF1) mice
Conditions: higher = longer survival
Procedure, shortened: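 Each compound was tested against a transplantable tumor grown in mice. The endpoint was survival, with treated animals benchmarked against vehicle controls as a simple ratio.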

[1] = endpoint: mean survival time, dose: 400.0 mg/kg/injection, schedule: Q01DX001 (ip), vehicle: saline
[2] = endpoint: mean survival time, dose: 500.0 mg/kg/injection, schedule: Q01DX Z (ip), vehicle: saline

Measured: T/C

O=C(COC(=O)c1ccccc1Br)c1ccc(-c2ccccc2)cc1
inactive: endpoint: mean survival time, dose: 100.0 mg/kg/injection, schedule: Q01DX001 (ip), vehicle: saline 94 % of control | endpoint: mean survival time, dose: 200.0 mg/kg/injection, schedule: Q01DX001 (ip), vehicle: saline 100 % of control | [1] 91 % of control

O=C(O)/C=C\C(=O)NCCCNC(=O)/C=C\C(=O)O
inactive: endpoint: mean survival time, dose: 100.0 mg/kg/injection, schedule: Q01DX001 (ip), vehicle: carboxymethylcellulose (CMC) 101 % of control | endpoint: mean survival time, dose: 200.0 mg/kg/injection, schedule: Q01DX001 (ip), vehicle: carboxymethylcellulose (CMC) 96 % of control | endpoint: mean survival time, dose: 400.0 mg/kg/injection, schedule: Q01DX001 (ip), vehicle: carboxymethylcellulose (CMC) 93 % of control

CCCCNC(=O)C1CC2c3cccc4c3c(cn4C)CC2N(C)C1 (stereo not given)
inactive: endpoint: mean survival time, dose: 3.12 mg/kg/injection, schedule: Q01DX009 (ip), vehicle: saline 100 % of control | endpoint: mean survival time, dose: 6.25 mg/kg/injection, schedule: Q01DX009 (ip), vehicle: saline 92 % of control | endpoint: mean survival time, dose: 12.5 mg/kg/injection, schedule: Q01DX009 (ip), vehicle: saline 100 % of control | endpoint: mean survival time, dose: 25.0 mg/kg/injection, schedule: Q01DX009 (ip), vehicle: saline 94 % of control | endpoint: mean survival time, dose: 50.0 mg/kg/injection, schedule: Q01DX009 (ip), vehicle: saline 101 % of control

O=C1OC(=O)C2C3C=CC(CC12)O3 (stereo not given)
inactive: endpoint: mean survival time, dose: 6.25 mg/kg/injection, schedule: Q01DX009 (ip), vehicle: saline with Tween-80 97 % of control | endpoint: mean survival time, dose: 6.25 mg/kg/injection, schedule: Q04DX003 (ip), vehicle: saline with Tween-80 96 % of control | endpoint: mean survival time, dose: 12.5 mg/kg/injection, schedule: Q01DX009 (ip), vehicle: saline with Tween-80 97 % of control | endpoint: mean survival time, dose: 12.5 mg/kg/injection, schedule: Q04DX003 (ip), vehicle: saline with Tween-80 91 % of control | endpoint: mean survival time, dose: 25.0 mg/kg/injection, schedule: Q04DX003 (ip), vehicle: saline with Tween-80 94 % of control

Cc1cc(CC(=S)[S-])[n+](C)c(CC(=S)S)c1
inactive: endpoint: mean survival time, dose: 87.5 mg/kg/injection, schedule: Q01DX009 (ip), vehicle: Klucel (hydroxypropylcellulose) (HPC) 105 % of control | endpoint: mean survival time, dose: 175.0 mg/kg/injection, schedule: Q01DX009 (ip), vehicle: Klucel (hydroxypropylcellulose) (HPC) 101 % of control

CC1(c2ccc(Cl)cc2)NC(=O)N(CC(=O)Nc2ccccc2)C1=O (stereo not given)
inactive: endpoint: mean survival time, dose: 100.0 mg/kg/injection, schedule: Q04DX003 (ip), vehicle: acetone 101 % of control | endpoint: mean survival time, dose: 200.0 mg/kg/injection, schedule: Q04DX003 (ip), vehicle: acetone 90 % of control | endpoint: mean survival time, dose: 400.0 mg/kg/injection, schedule: Q04DX003 (ip), vehicle: acetone 93 % of control

CCOC(N)=O
inactive: endpoint: mean survival time, dose: 27.0 mg/kg/injection, schedule: Q03HX024 (ip), vehicle: saline 97 % of control | endpoint: mean survival time, dose: 40.0 mg/kg/injection, schedule: Q03HX024 (ip), vehicle: saline 110 % of control | endpoint: mean survival time, dose: 60.0 mg/kg/injection, schedule: Q03HX024 (ip), vehicle: saline 95 % of control | endpoint: mean survival time, dose: 62.6 mg/kg/injection, schedule: Q01DX Z (ip), vehicle: carboxymethylcellulose (CMC) 106 % of control | endpoint: mean survival time, dose: 90.0 mg/kg/injection, schedule: Q03HX024 (ip), vehicle: saline 101 % of control | endpoint: mean survival time, dose: 100.0 mg/kg/injection, schedule: Q01DX009 (ip), vehicle: saline 102 % of control | endpoint: mean survival time, dose: 100.0 mg/kg/injection, schedule: Q04DX003 (ip), vehicle: saline 95 % of control | endpoint: mean survival time, dose: 120.0 mg/kg/injection, schedule: Q01DX009 (ip), vehicle: saline 98 % of control | endpoint: mean survival time, dose: 125.0 mg/kg/injection, schedule: Q01DX010 (ip), vehicle: saline 110 % of control and 87 % of control | endpoint: mean survival time, dose: 125.0 mg/kg/injection, schedule: Q01DX Z (ip), vehicle: saline 115 % of control | endpoint: mean survival time, dose: 125.25 mg/kg/injection, schedule: Q01DX Z (ip), vehicle: carboxymethylcellulose (CMC) 101 % of control | endpoint: mean survival time, dose: 135.0 mg/kg/injection, schedule: Q03HX024 (ip), vehicle: saline 110 % of control | endpoint: mean survival time, dose: 180.0 mg/kg/injection, schedule: Q01DX009 (ip), vehicle: saline 102 % of control | endpoint: mean survival time, dose: 188.0 mg/kg/injection, schedule: Q01DX Z (ip), vehicle: saline 100 % of control | endpoint: mean survival time, dose: 200.0 mg/kg/injection, schedule: Q01DX009 (ip), vehicle: saline 104 % of control | endpoint: mean survival time, dose: 200.0 mg/kg/injection, schedule: Q04DX003 (ip), vehicle: saline 101 % of control | endpoint: mean survival time, dose: 250.0 mg/kg/injection, schedule: Q01DX010 (ip), vehicle: saline 111 % of control and 112 % of control | endpoint: mean survival time, dose: 250.0 mg/kg/injection, schedule: Q01DX Z (ip), vehicle: saline 94 % of control | endpoint: mean survival time, dose: 250.5 mg/kg/injection, schedule: Q01DX Z (ip), vehicle: carboxymethylcellulose (CMC) 106 % of control | endpoint: mean survival time, dose: 266.0 mg/kg/injection, schedule: Q01DX001 (ip), vehicle: saline 100 % of control | endpoint: mean survival time, dose: 270.0 mg/kg/injection, schedule: Q01DX009 (ip), vehicle: saline 108 % of control | endpoint: mean survival time, dose: 280.0 mg/kg/injection, schedule: Q02DX010 (ip), vehicle: carboxymethylcellulose (CMC) 109 % of control | endpoint: mean survival time, dose: 375.0 mg/kg/injection, schedule: Q01DX Z (ip), vehicle: saline 110 % of control | [1] 119 % of control | endpoint: mean survival time, dose: 400.0 mg/kg/injection, schedule: Q01DX009 (ip), vehicle: saline 107 % of control and 110 % of control | endpoint: mean survival time, dose: 400.0 mg/kg/injection, schedule: Q04DX003 (ip), vehicle: saline 100 % of control | endpoint: mean survival time, dose: 500.0 mg/kg/injection, schedule: Q01DX010 (ip), vehicle: saline 123 % of control | [2] 105 % of control | endpoint: mean survival time, dose: 501.0 mg/kg/injection, schedule: Q01DX Z (ip), vehicle: carboxymethylcellulose (CMC) 108 % of control | endpoint: mean survival time, dose: 600.0 mg/kg/injection, schedule: Q01DX001 (ip), vehicle: saline 121 % of control | endpoint: mean survival time, dose: 600.0 mg/kg/injection, schedule: Q01DX009 (ip), vehicle: saline 98 % of control | endpoint: mean survival time, dose: 750.0 mg/kg/injection, schedule: Q01DX Z (ip), vehicle: saline 103 % of control | endpoint: mean survival time, dose: 1000.0 mg/kg/injection, schedule: Q01DX010 (ip), vehicle: saline 94 % of control | endpoint: mean survival time, dose: 1000.0 mg/kg/injection, schedule: Q01DX Z (ip), vehicle: saline 105 % of control | endpoint: mean survival time, dose: 1074.0 mg/kg/injection, schedule: Q01DX001 (ip), vehicle: saline 115 % of control | endpoint: median survival time, dose: 125.0 mg/kg/injection, schedule: Q01DX009 (ip), vehicle: saline 100 % of control | endpoint: median survival time, dose: 250.0 mg/kg/injection, schedule: Q01DX009 (ip), vehicle: saline 100 % of control | endpoint: median survival time, dose: 500.0 mg/kg/injection, schedule: Q01DX009 (ip), vehicle: saline 100 % of control and 110 % of control | endpoint: median survival time, dose: 1000.0 mg/kg/injection, schedule: Q01DX009 (ip), vehicle: saline 87 % of control

CC(=O)C(C(C)=O)C(c1ccccc1)C(C(C)=O)C(C)=O
inactive: endpoint: mean survival time, dose: 100.0 mg/kg/injection, schedule: Q01DX009 (ip), vehicle: Klucel (hydroxypropylcellulose) (HPC) 94 % of control | endpoint: mean survival time, dose: 200.0 mg/kg/injection, schedule: Q01DX009 (ip), vehicle: Klucel (hydroxypropylcellulose) (HPC) 91 % of control

O=C(NC(=S)Nc1cccc(O)c1)c1cccc([N+](=O)[O-])c1
inactive: endpoint: mean survival time, dose: 100.0 mg/kg/injection, schedule: Q01DX001 (ip), vehicle: saline with Tween-80 93 % of control | endpoint: mean survival time, dose: 100.0 mg/kg/injection, schedule: Q01DX009 (ip), vehicle: saline with Tween-80 94 % of control and 87 % of control | endpoint: mean survival time, dose: 100.0 mg/kg/injection, schedule: Q04DX002 (ip), vehicle: saline with Tween-80 98 % of control and 101 % of control | endpoint: mean survival time, dose: 100.0 mg/kg/injection, schedule: Q04DX003 (ip), vehicle: saline with Tween-80 89 % of control | endpoint: mean survival time, dose: 200.0 mg/kg/injection, schedule: Q01DX001 (ip), vehicle: saline with Tween-80 97 % of control | endpoint: mean survival time, dose: 200.0 mg/kg/injection, schedule: Q01DX009 (ip), vehicle: saline with Tween-80 93 % of control and 105 % of control | endpoint: mean survival time, dose: 200.0 mg/kg/injection, schedule: Q04DX002 (ip), vehicle: saline with Tween-80 96 % of control and 109 % of control | endpoint: mean survival time, dose: 200.0 mg/kg/injection, schedule: Q04DX003 (ip), vehicle: saline with Tween-80 109 % of control | endpoint: mean survival time, dose: 400.0 mg/kg/injection, schedule: Q01DX001 (ip), vehicle: saline with Tween-80 103 % of control | endpoint: mean survival time, dose: 400.0 mg/kg/injection, schedule: Q01DX009 (ip), vehicle: saline with Tween-80 94 % of control | endpoint: mean survival time, dose: 400.0 mg/kg/injection, schedule: Q04DX002 (ip), vehicle: saline with Tween-80 101 % of control | endpoint: mean survival time, dose: 400.0 mg/kg/injection, schedule: Q04DX003 (ip), vehicle: saline with Tween-80 94 % of control

Cc1cc(Cl)ccc1OCC(=O)NCC(=O)O
inactive: endpoint: mean survival time, dose: 100.0 mg/kg/injection, schedule: Q04DX002 (ip), vehicle: Klucel (hydroxypropylcellulose) (HPC) 90 % of control | endpoint: mean survival time, dose: 200.0 mg/kg/injection, schedule: Q04DX002 (ip), vehicle: Klucel (hydroxypropylcellulose) (HPC) 97 % of control | endpoint: mean survival time, dose: 400.0 mg/kg/injection, schedule: Q04DX002 (ip), vehicle: Klucel (hydroxypropylcellulose) (HPC) 105 % of control

O=C(CCl)OCC1CC2C=CC1C2 (stereo not given)
inactive: endpoint: mean survival time, dose: 222.0 mg/kg/injection, schedule: Q01DX Z (ip), vehicle: saline 98 % of control | endpoint: mean survival time, dose: 333.0 mg/kg/injection, schedule: Q01DX Z (ip), vehicle: saline 100 % of control | [2] 96 % of control
